This assay relates to SW1271 complex spheroids with HUVEC/MSC, growth, % test/control. In words: Anticancer human tumor SW1271 cell line growth inhibition [AhR].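 For all read-outs here: spheroids exposed to agents for 7 days before readout.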 To be noted: for viability, T/C: stronger effect = lower value. The method in brief:
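Agents were dosed in half-log steps down from roughly clinical Cmax, or from 10 microM where Cmax was unknown, alone and with AhR antagonists. Read-out: percent test/control growth of tumor spheroids containing HUVEC and MSC stromal cells.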

[1] abbreviates: curve of first compound, second compound 0.1 µM.
The mark [2] stands for this setting: curve of first compound, second compound 0.316 µM.
Setting [3] is: curve of first compound, second compound 1 µM.
The mark [4] stands for this setting: curve of first compound, second compound 3.16 µM.
[5] abbreviates: curve of first compound, second compound 10 µM.
The mark [6] stands for this setting: second compound 0.1 µM, first compound 0.0316 µM.
[7] abbreviates: second compound 0.1 µM, first compound 0.1 µM.
Setting [8] is: second compound 0.1 µM, first compound 0.316 µM.
[9] abbreviates: second compound 0.1 µM, first compound 1 µM.
Where [10] appears, read: second compound 0.1 µM, first compound 3.16 µM.
Where [11] appears, read: second compound 0.1 µM, first compound 10 µM.
Setting [12] is: second compound 0.316 µM, first compound 0.0316 µM.
The mark [13] stands for this setting: second compound 0.316 µM, first compound 0.1 µM.
The mark [14] stands for this setting: second compound 0.316 µM, first compound 0.316 µM.
The mark [15] stands for this setting: second compound 0.316 µM, first compound 1 µM.
[16] abbreviates: second compound 0.316 µM, first compound 3.16 µM.
Where [17] appears, read: second compound 0.316 µM, first compound 10 µM.
Where [18] appears, read: second compound 1 µM, first compound 0.0316 µM.
The mark [19] stands for this setting: second compound 1 µM, first compound 0.1 µM.
The mark [20] stands for this setting: second compound 1 µM, first compound 0.316 µM.
Where [21] appears, read: second compound 1 µM, first compound 1 µM.
The mark [22] stands for this setting: second compound 1 µM, first compound 3.16 µM.
The mark [23] stands for this setting: second compound 1 µM, first compound 10 µM.
The mark [24] stands for this setting: second compound 3.16 µM, first compound 0.0316 µM.
Where [25] appears, read: second compound 3.16 µM, first compound 0.1 µM.
[26] abbreviates: second compound 3.16 µM, first compound 0.316 µM.
[27] abbreviates: second compound 3.16 µM, first compound 1 µM.
[28] abbreviates: second compound 3.16 µM, first compound 3.16 µM.
Where [29] appears, read: second compound 3.16 µM, first compound 10 µM.
Where [30] appears, read: second compound 10 µM, first compound 0.0316 µM.
Where [31] appears, read: second compound 10 µM, first compound 0.1 µM.
The mark [32] stands for this setting: second compound 10 µM, first compound 0.316 µM.
[33] abbreviates: second compound 10 µM, first compound 1 µM.
[34] abbreviates: second compound 10 µM, first compound 3.16 µM.
Where [35] appears, read: second compound 10 µM, first compound 10 µM.

SMILES strings stand for the structures. Where “and” joins values, the source holds several entries; their conditions need not be identical. Equal values may be shown once.

In the case of `CCc1c2c(nc3ccc(O)cc13)-c1cc3c(c(=O)n1C2)COC(=O)[C@]3(O)CC` + Cc1cncc(-c2nc(NCCc3c[nH]c4ccccc34)c3ncn(C(C)C)c3n2)c1, the IC50 reads like this: under setting [1], more than 300 nM; under setting [2], more than 300 nM; under setting [3], 255 nM; under setting [4], 162 nM; under setting [5], 1.82 nM. For the same compound, the viability, T/C was 86.5% (second compound 0.1 µM, first compound 0.000949 µM); 92.8% (second compound 0.1 µM, first compound 0.003 µM); 76.6% (second compound 0.1 µM, first compound 0.00949 µM); 57.4% (second compound 0.1 µM, first compound 0.03 µM); 59.5% (second compound 0.1 µM, first compound 0.0949 µM); 57.8% (second compound 0.1 µM, first compound 0.3 µM). The viability, T/C reads like this: (second compound 0.316 µM, first compound 0.000949 µM) 69.5%; (second compound 0.316 µM, first compound 0.003 µM) 79.8%; (second compound 0.316 µM, first compound 0.00949 µM) 83%; (second compound 0.316 µM, first compound 0.03 µM) 58.1%; (second compound 0.316 µM, first compound 0.0949 µM) 52.2%; (second compound 0.316 µM, first compound 0.3 µM) 48.9%. The viability, T/C runs as follows: (second compound 1 µM, first compound 0.000949 µM) 116%; (second compound 1 µM, first compound 0.003 µM) 104%; (second compound 1 µM, first compound 0.00949 µM) 71%; (second compound 1 µM, first compound 0.03 µM) 74.2%; (second compound 1 µM, first compound 0.0949 µM) 64.1%; (second compound 1 µM, first compound 0.3 µM) 50.3%. Besides, the viability, T/C is 92% (second compound 3.16 µM, first compound 0.000949 µM); 90.2% (second compound 3.16 µM, first compound 0.003 µM); 75.2% (second compound 3.16 µM, first compound 0.00949 µM); 63.6% (second compound 3.16 µM, first compound 0.03 µM); 60.8% (second compound 3.16 µM, first compound 0.0949 µM); 41.5% (second compound 3.16 µM, first compound 0.3 µM). Besides, the viability, T/C is 55.5% (second compound 10 µM, first compound 0.000949 µM); 45% (second compound 10 µM, first compound 0.003 µM); 37.2% (second compound 10 µM, first compound 0.00949 µM); 27.9% (second compound 10 µM, first compound 0.03 µM); 24% (second compound 10 µM, first compound 0.0949 µM); 25.9% (second compound 10 µM, first compound 0.3 µM).

Regarding `CC1COCCN1c1cc(-c2ccnn2C)c2ccnc(-c3ccn[nH]3)c2n1` (centres undefined), the viability, T/C was 95.8% and 99.2% and 91% (compound 0.00316 µM); 90.6% and 102% and 103% (compound 0.01 µM); 76.6% and 71.1% and 85.7% (compound 0.0316 µM); 58.4% and 65.3% and 70.1% (compound 0.1 µM); 51.8% and 61.9% and 60.3% (compound 0.316 µM); 43.8% and 46.2% and 45.5% (compound 1 µM). Also, the half-inhibitory concentration (IC50) (curve of compound) is 294 nM and > 1000 nM and 712 nM.

As for `Cc1cncc(-c2nc(NCCc3c[nH]c4ccccc34)c3ncn(C(C)C)c3n2)c1`, the viability, T/C (compound 10 µM) is 46.3% [middle of 20 runs].

Take `Nc1ccn(C2OC(CO)C(O)C2(F)F)c(=O)n1` (centres undefined): the viability, T/C is, setting by setting: (compound 0.0316 µM) 75.2% and 49% and 67.7%; (compound 0.1 µM) 65.6% and 48.5% and 66.2%; (compound 0.316 µM) 69.9% and 41.9% and 48.2%; (compound 1 µM) 57.6% and 44.3% and 50%; (compound 3.16 µM) 57.8% and 50.9% and 56.9%; (compound 10 µM) 64.4% and 44.9% and 47.5%.

In the case of `NS(=O)(=O)OCC1CC(n2ccc3c(NC4CCc5ccccc54)ncnc32)CC1O` (centres undefined) + Cc1ccccc1N=Nc1ccc(NC(=O)c2ccnn2C)c(C)c1, the IC50 is more than 10000 nM under setting [1]; more than 10000 nM under setting [2]; more than 10000 nM under setting [3]; more than 10000 nM under setting [4]; more than 10000 nM under setting [5]. The viability, T/C is 129% under setting [6]; 161% under setting [7]; 118% under setting [8]; 101% under setting [9]; 91.2% under setting [10]; 82.5% under setting [11]. For the same compound, the viability, T/C was 135% under setting [12]; 165% under setting [13]; 112% under setting [14]; 95.9% under setting [15]; 103% under setting [16]; 86.3% under setting [17]. Moreover, the viability, T/C by setting is: under setting [18], 157%; under setting [19], 132%; under setting [20], 151%; under setting [21], 88.2%; under setting [22], 80.1%; under setting [23], 78.5%. In addition, the viability, T/C was 157% under setting [24]; 206% under setting [25]; 111% under setting [26]; 89.7% under setting [27]; 89.1% under setting [28]; 83.2% under setting [29]. For the same compound, the viability, T/C under setting [30] is 128%; the viability, T/C under setting [31] was 132%; the viability, T/C under setting [32] was 123%; the viability, T/C under setting [33] was 94%; the viability, T/C under setting [34] is 77.4%; the viability, T/C under setting [35] was 84.9%.

On to `COc1cccc2c1C(=O)c1c(O)c3c(c(O)c1C2=O)CC(O)(C(=O)CO)CC3OC1CC(N)C(O)C(C)O1` (centres undefined) + Cc1ccccc1N=Nc1ccc(NC(=O)c2ccnn2C)c(C)c1, for which the IC50 was less than 31.6 nM under setting [1]; less than 31.6 nM under setting [2]; 152 nM under setting [3]; 115 nM under setting [4]; 128 nM under setting [5]. The viability, T/C under setting [6] is 39.7%; the viability, T/C under setting [7] was 52.7%; the viability, T/C under setting [8] was 32.5%; the viability, T/C under setting [9] was 3%; the viability, T/C under setting [10] was 3.18%; the viability, T/C under setting [11] is 2.71%. The viability, T/C by setting is: under setting [12], 52.6%; under setting [13], 45.9%; under setting [14], 34.7%; under setting [15], 2.92%; under setting [16], 2.63%; under setting [17], 3.51%. For the same compound, the viability, T/C was 56.4% under setting [18]; 58.8% under setting [19]; 36.6% under setting [20]; 3.45% under setting [21]; 3.18% under setting [22]; 4.18% under setting [23]. Further, the viability, T/C is 54.6% under setting [24]; 49.7% under setting [25]; 34.9% under setting [26]; 2.56% under setting [27]; 3.52% under setting [28]; 3.41% under setting [29]. Besides, the viability, T/C was 57.6% under setting [30]; 50.4% under setting [31]; 35.4% under setting [32]; 1.26% under setting [33]; 3.22% under setting [34]; 3.53% under setting [35].

Values taken from PubChem BioAssay AID1919017 (Molecular Pharmacology Branch, DTP, NCI, 2023).
